A short description of data set [1]: Acute toxicity in C57BL/6 mouse assessed as effect on body weight at 1000 to 1500 mg/kg measured after 14 days. Format: organism-based. As to conditions: in vivo, 336 h, dose 1000-1500 mg/kg, time 14 day.
For data set [2], the system named is HepG2. Briefly: Cytotoxicity against human HepG2 cells assessed as reduction in cell viability at 1 to 20 uM incubated for 48 hrs by MTT assay. The data set is classed as toxicity, cell-based. Conditions: hepg2, 48 h, dose 1-20 µM.
In data set [3] the target is Cholinesterase (Equus caballus, UniProt P81908). Briefly: Inhibition of equine serum BChE using butyrylthiocholine iodide as substrate preincubated with enzyme for 20 mins followed by substrate addition and measured after 20 mins by Ellman's method. The data set is classed as cell-free.
Data set [4] addresses Acetylcholinesterase (Electrophorus electricus) (UniProt O42275). In words: Potency index, ratio of harmine IC50 to test compound IC50 for electric eel AChE.
Data set [5] relates to SH-SY5Y. In words: Cytotoxicity against human SH-SY5Y cells assessed as reduction in cell viability at 1 to 20 uM incubated for 48 hrs by MTT assay. Format: toxicity, cell-based. As to conditions: dose 1-20 µM.
Data set [6] concerns the target Cholinesterase (Equus caballus) (UniProt P81908). Briefly: Inhibition of equine serum BChE at 50 uM using butyrylthiocholine iodide as substrate preincubated with enzyme for 20 mins followed by substrate addition and measured after 20 mins by Ellman's method. Format: cell-free. As to conditions: time 40.0 min.
In data set [7] the target is Dual specificity tyrosine-phosphorylation-regulated kinase 1A (Homo sapiens) (UniProt Q13627). Briefly: Inhibition of DYRK1A (unknown origin) at 0.5 to 1 uM. Conditions: dose 0.5-1 µM.
In data set [8] the target is T1, Glycogen synthase kinase-3 beta (Homo sapiens, UniProt P49841). Briefly: Inhibition of GSK3-beta (unknown origin) incubated for 60 mins by ATP-Glo luminescent assay.
Target sequence in this assay (P49841 whole entry): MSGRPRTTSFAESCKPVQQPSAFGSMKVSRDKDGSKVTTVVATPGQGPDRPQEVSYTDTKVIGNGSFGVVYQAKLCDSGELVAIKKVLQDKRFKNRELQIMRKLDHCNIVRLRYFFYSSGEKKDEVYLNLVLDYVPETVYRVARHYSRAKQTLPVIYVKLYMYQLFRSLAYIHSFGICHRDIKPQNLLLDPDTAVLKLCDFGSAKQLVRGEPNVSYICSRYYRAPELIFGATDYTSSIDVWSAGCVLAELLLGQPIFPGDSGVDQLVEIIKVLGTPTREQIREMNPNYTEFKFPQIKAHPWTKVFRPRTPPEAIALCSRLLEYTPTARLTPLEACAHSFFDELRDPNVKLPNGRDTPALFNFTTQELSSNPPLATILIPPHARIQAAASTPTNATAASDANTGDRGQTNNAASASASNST
The target of data set [9] is Dual specificity tyrosine-phosphorylation-regulated kinase 1B (Homo sapiens) (UniProt Q9Y463). Briefly: Inhibition of DYRK1B (unknown origin) at 0.5 to 1 uM. As to conditions: dose 0.5-1 µM.
Data set [10] has as its system L02. Briefly: Cytotoxicity against human HL7702 cells assessed as reduction in cell viability at 1 to 20 uM incubated for 48 hrs by MTT assay. The data set is classed as toxicity, cell-based. As to conditions: l02, 48 h, dose 1-20 µM. Background: Tetrazolium dyes change colour on reduction, which living cells bring about.
A short description of data set [11]: Selectivity index, ratio of IC50 for equine serum BChE to IC50 for electric eel AChE.
Data set [12] addresses T1, Glycogen synthase kinase-3 beta. In words: Inhibition of GSK3-beta (unknown origin) at 10 uM incubated for 60 mins by ATP-Glo luminescent assay.
Target sequence in this assay (P49841 whole entry, looked up): as the sequence (P49841 whole entry) above
For data set [13] the target is unchanged. In words: Inhibition of GSK3-beta in human HEK293T cells harboring tau P301L mutant assessed as reduction of NFT production measured after 24 hrs by fluorescence staining based analysis. The data set is classed as cell-based. As to conditions: dose 2.5-10 µM, DDE = dose-dependent effect.
Target sequence in this assay (P49841 whole entry, looked up): as the sequence (P49841 whole entry) above
The target in data set [14] is Acetylcholinesterase (Electrophorus electricus, UniProt O42275). In words: Inhibition of electric eel AChE using acetylthiocholine iodide as substrate preincubated with enzyme for 20 mins followed by substrate addition and measured after 20 mins by Ellman's method. In general terms: DTNB colorimetry detects thiols as they appear.
Data set [15] concerns the target Glycogen synthase kinase-3 alpha (Homo sapiens) (UniProt P49840). Briefly: Inhibition of GSK3-alpha (unknown origin) at 0.5 to 1 uM. As to conditions: dose 0.5-1 µM.
Data set [16] has as its target T1, Glycogen synthase kinase-3 beta. In words: Inhibition of GSK3-beta in human HEK293T cells harboring tau P301L mutant assessed as inhibition of tau hyperphosphorylation at Ser396 residue measured after 48 hrs by western blot analysis. The data set is classed as cell-based. Conditions: dose 2.5-10 µM, DDE = dose-dependent effect.
Target sequence in this assay (P49841 whole entry, looked up): as the sequence (P49841 whole entry) above
Data set [17] has as its system HEK-293T. In words: Cytotoxicity against human HEK-293T cells assessed as reduction in cell viability at 1 to 20 uM incubated for 48 hrs by MTT assay. The data set is classed as toxicity, cell-based. Conditions: dose 1-20 µM.
In data set [18] the target is T1, Glycogen synthase kinase-3 beta. In words: Inhibition of GSK3-beta in human HEK293T cells harboring tau P301L mutant assessed as increase in GSK3-beta phosphorylation at Ser9 residue measured after 48 hrs by western blot analysis. Format: cell-based. As to conditions: dose 2.5-10 µM, DDE = dose-dependent effect. A general note: In western blotting, separated proteins are transferred to a membrane and probed.
Target sequence in this assay (P49841 whole entry, looked up): as the sequence (P49841 whole entry) above

Activity calls are given as the source filed them. The calls are words filed in the database; no cut-off is given here.

Chain of Cholinesterase (Equus caballus) (P81908 whole entry): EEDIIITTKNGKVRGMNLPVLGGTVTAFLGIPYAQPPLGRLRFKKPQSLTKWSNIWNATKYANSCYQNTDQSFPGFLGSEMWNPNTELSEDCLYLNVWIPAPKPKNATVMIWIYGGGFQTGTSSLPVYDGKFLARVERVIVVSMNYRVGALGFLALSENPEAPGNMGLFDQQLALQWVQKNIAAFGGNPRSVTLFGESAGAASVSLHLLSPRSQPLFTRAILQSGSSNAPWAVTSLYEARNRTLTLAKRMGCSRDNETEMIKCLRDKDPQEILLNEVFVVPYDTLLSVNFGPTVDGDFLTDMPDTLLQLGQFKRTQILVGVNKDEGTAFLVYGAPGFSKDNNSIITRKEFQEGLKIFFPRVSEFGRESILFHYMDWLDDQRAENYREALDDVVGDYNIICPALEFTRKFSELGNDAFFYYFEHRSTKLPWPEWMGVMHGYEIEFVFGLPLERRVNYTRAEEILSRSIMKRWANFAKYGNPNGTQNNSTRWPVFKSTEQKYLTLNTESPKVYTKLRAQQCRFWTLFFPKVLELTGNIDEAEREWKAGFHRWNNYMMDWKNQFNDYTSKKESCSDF
Chain of Cholinesterase (P81908 whole entry): as above
Chain of Glycogen synthase kinase-3 alpha (Homo sapiens) (P49840 2-483 limits assumed): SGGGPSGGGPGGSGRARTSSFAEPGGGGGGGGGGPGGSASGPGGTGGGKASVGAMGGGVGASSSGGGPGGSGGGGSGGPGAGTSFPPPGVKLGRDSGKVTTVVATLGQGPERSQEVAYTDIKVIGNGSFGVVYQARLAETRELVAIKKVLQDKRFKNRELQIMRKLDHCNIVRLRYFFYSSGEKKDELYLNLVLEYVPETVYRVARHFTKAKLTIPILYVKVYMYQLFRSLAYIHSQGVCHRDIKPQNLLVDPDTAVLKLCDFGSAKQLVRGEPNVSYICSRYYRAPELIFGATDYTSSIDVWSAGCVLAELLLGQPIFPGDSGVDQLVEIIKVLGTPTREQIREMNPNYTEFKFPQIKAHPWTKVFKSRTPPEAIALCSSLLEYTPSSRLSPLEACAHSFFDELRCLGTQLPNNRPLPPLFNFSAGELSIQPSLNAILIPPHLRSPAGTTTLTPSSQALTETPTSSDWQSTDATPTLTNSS
Chain of Acetylcholinesterase (O42275 whole entry): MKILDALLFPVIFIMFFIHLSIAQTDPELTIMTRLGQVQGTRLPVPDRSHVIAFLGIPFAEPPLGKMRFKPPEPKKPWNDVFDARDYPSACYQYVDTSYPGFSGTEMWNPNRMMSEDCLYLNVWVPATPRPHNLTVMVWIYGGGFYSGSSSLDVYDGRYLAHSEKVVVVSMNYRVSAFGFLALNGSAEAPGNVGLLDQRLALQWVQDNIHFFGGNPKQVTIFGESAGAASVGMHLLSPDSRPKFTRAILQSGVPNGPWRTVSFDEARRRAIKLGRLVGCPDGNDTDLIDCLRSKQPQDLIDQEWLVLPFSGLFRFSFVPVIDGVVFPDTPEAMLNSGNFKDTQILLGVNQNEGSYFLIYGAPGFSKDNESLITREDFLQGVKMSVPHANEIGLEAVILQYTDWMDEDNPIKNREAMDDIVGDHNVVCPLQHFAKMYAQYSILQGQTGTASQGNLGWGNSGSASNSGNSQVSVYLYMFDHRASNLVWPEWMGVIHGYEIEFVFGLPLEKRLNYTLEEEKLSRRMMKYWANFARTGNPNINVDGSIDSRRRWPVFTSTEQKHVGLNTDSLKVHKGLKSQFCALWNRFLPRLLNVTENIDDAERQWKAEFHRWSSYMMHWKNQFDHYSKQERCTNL
Chain of Dual specificity tyrosine-phosphorylation-regulated kinase 1B (Homo sapiens) (Q9Y463 whole entry, looked up): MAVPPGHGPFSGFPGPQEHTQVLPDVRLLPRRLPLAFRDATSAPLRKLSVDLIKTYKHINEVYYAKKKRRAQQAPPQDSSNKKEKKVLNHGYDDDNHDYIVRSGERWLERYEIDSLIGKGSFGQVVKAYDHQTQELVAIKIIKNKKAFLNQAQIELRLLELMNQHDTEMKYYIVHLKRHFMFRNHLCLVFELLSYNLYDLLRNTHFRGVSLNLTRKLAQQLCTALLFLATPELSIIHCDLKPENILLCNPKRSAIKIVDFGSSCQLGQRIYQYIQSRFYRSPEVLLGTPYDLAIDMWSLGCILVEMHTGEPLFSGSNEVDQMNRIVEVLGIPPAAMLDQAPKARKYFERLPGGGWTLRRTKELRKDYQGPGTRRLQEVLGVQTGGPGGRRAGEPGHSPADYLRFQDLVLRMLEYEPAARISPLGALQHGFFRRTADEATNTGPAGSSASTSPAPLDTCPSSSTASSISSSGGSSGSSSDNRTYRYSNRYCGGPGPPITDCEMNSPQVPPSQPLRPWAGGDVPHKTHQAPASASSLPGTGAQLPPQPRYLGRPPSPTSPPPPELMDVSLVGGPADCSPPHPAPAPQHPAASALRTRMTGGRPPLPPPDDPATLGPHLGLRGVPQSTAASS
Chain of Acetylcholinesterase (Electrophorus electricus) (O42275 24-633 limits assumed): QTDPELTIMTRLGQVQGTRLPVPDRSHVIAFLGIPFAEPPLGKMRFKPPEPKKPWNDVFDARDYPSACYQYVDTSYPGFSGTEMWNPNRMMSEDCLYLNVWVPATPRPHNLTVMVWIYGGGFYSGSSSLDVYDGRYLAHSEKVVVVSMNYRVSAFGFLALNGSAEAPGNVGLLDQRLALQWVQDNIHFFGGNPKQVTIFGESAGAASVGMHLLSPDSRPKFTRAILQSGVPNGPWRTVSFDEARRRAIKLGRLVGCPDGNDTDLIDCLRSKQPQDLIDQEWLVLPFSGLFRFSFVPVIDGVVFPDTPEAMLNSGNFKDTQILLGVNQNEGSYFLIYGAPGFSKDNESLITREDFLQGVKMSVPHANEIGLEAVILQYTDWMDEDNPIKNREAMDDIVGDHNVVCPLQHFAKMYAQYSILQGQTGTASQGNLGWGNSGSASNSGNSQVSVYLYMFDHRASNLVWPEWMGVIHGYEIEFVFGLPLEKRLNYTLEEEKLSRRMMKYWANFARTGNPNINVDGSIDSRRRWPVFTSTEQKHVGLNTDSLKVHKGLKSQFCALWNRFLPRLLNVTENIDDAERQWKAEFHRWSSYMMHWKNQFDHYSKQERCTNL

In general, IC50 refers to the concentration at which inhibition is half-maximal. Lower therefore signals greater potency in that assay. As a reminder, the inhibition is the change of the read-out against control, counted positive when it falls. Take `O=C(NCCC1CCN(Cc2ccccc2F)CC1)c1ccc2c(c1)[nH]c1c(NC(=O)C3CC3)nccc12`: the Activity entry in data set [1], in data set [2], in data set [5], in [10] and in [17] was “Non-Toxic” in each case. The IC50 in [3] came out at 20.8 µM; in data set [8], 6.78 µM; in data set [14] it was 0.27 µM. Moreover, the Ratio IC50 in [4] stood at 37; in data set [11], 77.1. The inhibition in data set [6] was 63%; in data set [12], 60.8%; in data set [13] it was “Dde”; in data set [16], “Dde”; in data set [18], “Dde”. In addition, the inhibition result in [7], in data set [9] and in data set [15] was “Active” throughout.
